We go through 15 compounds from patent US11970479B2, “3-(1H-pyrazol-4-yl)pyridine allosteric modulators of the M4 muscarinic acetylcholine receptor” (Merck Sharp & Dohme LLC, priority 2018, dated 2024).

The assay addresses T1, human M4 muscarinic acetylcholine receptor (Homo sapiens, UniProt P08173).
T1 construct: expressed in transfected cells
T1 sequence (P08173 1-479): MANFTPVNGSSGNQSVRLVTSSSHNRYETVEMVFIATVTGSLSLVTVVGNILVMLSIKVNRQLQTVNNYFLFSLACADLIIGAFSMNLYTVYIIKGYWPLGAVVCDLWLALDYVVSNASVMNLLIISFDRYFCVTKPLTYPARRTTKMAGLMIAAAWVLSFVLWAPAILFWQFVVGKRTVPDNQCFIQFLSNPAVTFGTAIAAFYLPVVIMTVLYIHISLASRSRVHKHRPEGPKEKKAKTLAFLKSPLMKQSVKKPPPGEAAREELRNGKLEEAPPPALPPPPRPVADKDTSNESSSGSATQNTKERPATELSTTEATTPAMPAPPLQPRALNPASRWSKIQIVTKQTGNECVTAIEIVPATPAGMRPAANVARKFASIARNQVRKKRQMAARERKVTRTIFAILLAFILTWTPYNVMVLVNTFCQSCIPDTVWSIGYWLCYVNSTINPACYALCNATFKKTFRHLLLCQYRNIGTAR
The experiment in a line: human FLIPR-based M4 PAM assay (CHO-K1 cells with human M4 receptor and Gαqi5, calcium dye fluorescence, EC20 acetylcholine). It counts as cell-based. Conditions: inflection point (IP) of the dose response curve, human M4 receptor/Gαqi5, acetylcholine at 20% of maximum response, read-out: M4PAM Hu IP. A digest of the protocol:
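CHO-K1 cells stably expressing human M4 and chimeric Gαqi5 were dye-loaded ~1 h at 37° C. Test compound was added with fluorescence recorded 4 min, then acetylcholine at EC20 (sometimes a further EC70 addition) with reading 3.5 min. Value is the inflection point of a 4-parameter logistic fit.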
For `COc1cc2ccc(-c3nc(C)ccc3-c3cnn(CC4(F)CCCCC4)c3)cc2nn1` [Example 86, 7-(3-{1-[(1-fluorocyclohexyl)methyl]-1H-pyrazol-4-yl}-6-methylpyridin-2-yl)-3-methoxycinnoline], the EC50 came to 69 nM.

Consider `COc1cc2ccc(-c3nc(C)ccc3-c3cnn(CC4(C)CCOCC4)c3)cc2nn1` [Example 87, 3-methoxy-7-(6-methyl-3-{1-[(4-methyltetrahydro-2H-pyran-4-yl)methyl]-1H-pyrazol-4-yl}pyridin-2-yl)cinnoline], for which the EC50 is 63 nM.

`CC(C)(Cn1cc(-c2ccc(C#N)nc2-c2ccc3cccnc3c2)cn1)C(F)(F)F` [Example 88, 6-quinolin-7-yl-5-[1-(3,3,3-trifluoro-2,2-dimethylpropyl)-1H-pyrazol-4-yl]pyridine-2-carbonitrile]: the EC50 is 44 nM.

As for `CC(C)(C)CCn1cc(-c2ccc(C#N)nc2-c2ccc3cccnc3c2)cn1` [Example 89, 5-[1-(3,3-dimethylbutyl)-1H-pyrazol-4-yl]-6-quinolin-7-ylpyridine-2-carbonitrile], the EC50 is 52 nM.

In the case of `CC(C)(Cn1cc(-c2ccc(C#N)nc2-c2ccc3cccnc3c2)cn1)C(F)F` [Example 90, 5-[1-(3,3-difluoro-2,2-dimethylpropyl)-1H-pyrazol-4-yl]-6-quinolin-7-ylpyridine-2-carbonitrile], the EC50 was 27 nM.

With `CC(C)(CCn1cc(-c2ccc(C#N)nc2-c2ccc3cccnc3c2)cn1)C(F)(F)F` [Example 91, 6-quinolin-7-yl-5-[1-(4,4,4-trifluoro-3,3-dimethylbutyl)-1H-pyrazol-4-yl]pyridine-2-carbonitrile], the EC50 turned out to be 190 nM.

Consider `N#Cc1ccc(-c2cnn(CC(F)(F)C(F)F)c2)c(-c2ccc3cccnc3c2)n1` [Example 92, 6-quinolin-7-yl-5-[1-(2,2,3,3-tetrahydropropyl)-1H-pyrazol-4-yl]pyridine-2-carbonitrile], for which the EC50 is 131 nM.

`Cc1ccc(-c2cnn(CC3(C)CCC(F)(F)CC3)c2)c(-c2ccc3cccnc3c2)n1` [Example 93, 7-(3-{1-[(4,4-difluoro-1-methylcyclohexyl)methyl]-1H-pyrazol-4-yl}-6-methylpyridin-2-yl)quinoline]: the EC50 turned out to be 24 nM.

Regarding `CC1(Cn2cc(-c3cccnc3-c3ccc4cccnc4c3)cn2)CCCCC1` [Example 94, 7-(3-{1-[(1-methylcyclohexyl)methyl]-1H-pyrazol-4-yl}pyridin-2-yl)quinoline], the EC50 came out at 52 nM.

For `c1cnc(-c2ccc3cccnc3c2)c(-c2cnn(CCC3CCC3)c2)c1` [Example 95, 7-{3-[1-(2-cyclobutylethyl)-1H-pyrazol-4-yl]pyridin-2-yl}quinoline], the EC50 is 158 nM.

As to `c1cnc(-c2ccc3cccnc3c2)c(-c2cnn(CCC3CC3)c2)c1` [Example 96, 7-{3-[1-(2-cyclopropylethyl)-1H-pyrazol-4-yl]pyridin-2-yl}quinoline], the EC50 was found to be 239 nM.

On to `CC1(Cn2cc(-c3ccc(C#N)nc3-c3ccc4cccnc4c3)cn2)CC1` [Example 97, 5-{1-[(1-methylcyclopropyl)methyl]-1H-pyrazol-4-yl}-6-quinolin-7-ylpyridine-2-carbonitrile], for which the EC50 is 87 nM.

Regarding `COc1cc2ccc(-c3nc(C)ccc3-c3cnn(CC4CC4(C)C)c3)cc2nn1` (stereo not drawn) [Example 100, 7-(3-{1-[(2,2-dimethylcyclopropyl)methyl]-1H-pyrazol-4-yl}-6-methylpyridin-2-yl)-3-methoxycinnoline], the EC50 worked out at 81 nM.

`Cc1ccc(-c2cnn(CC3CC3(C)C)c2)c(-c2ccc3cccnc3c2)n1` (stereo not drawn) [Example 101, 7-(3-{1-[(2,2-dimethylcyclopropyl)methyl]-1H-pyrazol-4-yl}-6-methylpyridin-2-yl)quinoline]: the EC50 turned out to be 100 nM.

`COc1cc2ccc(-c3nc(C#N)ccc3-c3cnn(CC4CC4(C)C)c3)cc2nn1` (stereo not drawn) [Example 102, 5-{1-[(2,2-dimethylcyclopropyl)methyl]-1H-pyrazol-4-yl}-6-(3-methoxycinnolin-7-yl)pyridine-2-carbonitrile]: the EC50 came to 91 nM.
